Like-named read-outs stand apart in the source and are kept apart here.
Tests used:
[1] = system: bedbug (Cimex lectularius); assay: Contact efficacy against bedbugs on various surfaces (wood, PVC, wallpaper, mattress, glass); assay type: in vivo
Method: Adult Cimex lectularius, susceptible strain, were used. A solution of the active ingredient in acetone was prepared. In the same mode a complete […]. All these works were done under drawing off conditions. After evaporation of the acetone (30′) the dishes were closed by a glass lid and transferred into the test room.
One day later ten bedbugs, anaesthetized with CO2, were counted into each dish. At regular intervals, knock down was recorded (cumulatively).
The same methodology was used as was used in Example 105.

[2] = system: Blattella germanica, susceptible strain; assay: Contact efficacy against cockroaches on glazed tiles (acetone solutions); assay type: in vivo; details: mean of three replicates; for mortality at 60 mg/m2: imidacloprid 0.1%, 60 mg/m^2, glazed tile; for mortality at 310 mg/m2: imidacloprid 0.5%, 310 mg/m^2, glazed tile; for mortality at 620 mg/m2: imidacloprid 1%, 620 mg/m^2, glazed tile
Method: Male Blattella germanica, susceptible strain, were used. A solution of the active ingredient in acetone pipetted onto the corresponding tile on an area of 12.5 cm×12.5 cm.
One day later, a glass ring (diameter 9.5 cm, height 5.5 cm) inner wall treated with talcum was placed on the tile and five male German cockroaches were introduced. Knock down and mortality, respectively, were evaluated after 30′, 1 h, 3 h and 1 d. A water soaked cotton pad was added after 3 hours.
Each trial consisted of three replicates of which the mean values are calculated.

[3] = Mattress, 0.008% imidacloprid (30 mg/m^2) in acetone
[4] = PVC, 0.0016% imidacloprid (6 mg/m^2) in acetone
[5] = PVC, 0.008% imidacloprid (30 mg/m^2) in acetone
[6] = Wallpaper, 0.0016% imidacloprid (6 mg/m^2) in acetone
[7] = Wallpaper, 0.008% imidacloprid (30 mg/m^2) in acetone
[8] = Wood, 0.0016% imidacloprid (6 mg/m^2) in acetone
[9] = Wood, 0.008% imidacloprid (30 mg/m^2) in acetone
[10] = 0.5 h, read-out: Average % knockdown & mortality after 30 min
[11] = 1 h, read-out: Average % knockdown & mortality after 60 min
[12] = 3 h, read-out: Average % knockdown & mortality after 3 hr
[13] = 24 h, read-out: Average % knockdown & mortality after 24 hr

O=[N+]([O-])NC1=NCCN1Cc1ccc(Cl)nc1 [imidacloprid]
40%: % knock down or moribund after 6 d [1, 5] | mortality at 60 mg/m2 [2, 13] | mortality at 620 mg/m2 [2, 13]
13%: mortality at 620 mg/m2 [2, 12]
10%: % knock down or moribund after 6 d [1, 8]
0%: % knock down or moribund after 2 h [1, 3] | % knock down or moribund after 4 h [1, 3] | % knock down or moribund after 6 h [1, 3] | % knock down or moribund after 1 d [1, 3] | % knock down or moribund after 2 d [1, 3] | % knock down or moribund after 6 d [1, 3] | % knock down or moribund after 1 h [1, 4] | % knock down or moribund after 2 h [1, 4] | % knock down or moribund after 4 h [1, 4] | % knock down or moribund after 6 h [1, 4] | % knock down or moribund after 1 d [1, 4] | % knock down or moribund after 2 d [1, 4] | % knock down or moribund after 1 h [1, 5] | % knock down or moribund after 2 h [1, 5] | % knock down or moribund after 4 h [1, 5] | % knock down or moribund after 6 h [1, 5] | % knock down or moribund after 1 d [1, 5] | % knock down or moribund after 2 d [1, 5] | % knock down or moribund after 1 h [1, 6] | % knock down or moribund after 2 h [1, 6] | % knock down or moribund after 4 h [1, 6] | % knock down or moribund after 6 h [1, 6] | % knock down or moribund after 1 d [1, 6] | % knock down or moribund after 2 d [1, 6] | % knock down or moribund after 6 d [1, 6] | % knock down or moribund after 1 h [1, 7] | % knock down or moribund after 2 h [1, 7] | % knock down or moribund after 4 h [1, 7] | % knock down or moribund after 6 h [1, 7] | % knock down or moribund after 1 d [1, 7] | % knock down or moribund after 2 d [1, 7] | % knock down or moribund after 6 d [1, 7] | % knock down or moribund after 1 h [1, 8] | % knock down or moribund after 2 h [1, 8] | % knock down or moribund after 4 h [1, 8] | % knock down or moribund after 6 h [1, 8] | % knock down or moribund after 1 d [1, 8] | % knock down or moribund after 2 d [1, 8] | % knock down or moribund after 1 h [1, 9] | % knock down or moribund after 2 h [1, 9] | % knock down or moribund after 4 h [1, 9] | % knock down or moribund after 6 h [1, 9] | % knock down or moribund after 1 d [1, 9] | % knock down or moribund after 2 d [1, 9] | % knock down or moribund after 6 d [1, 9] | mortality at 60 mg/m2 [2, 10] | mortality at 310 mg/m2 [2, 10] | mortality at 620 mg/m2 [2, 10] | mortality at 60 mg/m2 [2, 11] | mortality at 310 mg/m2 [2, 11] | mortality at 620 mg/m2 [2, 11] | mortality at 310 mg/m2 [2, 12] | mortality at 310 mg/m2 [2, 13]
20%: % knock down or moribund after 6 d [1, 4] | mortality at 60 mg/m2 [2, 12]
